Assay results: patent US20110182850A1, “ORGANIC COMPOUNDS AND THEIR USES” (priority 2009, published 2011)

Target: T1, HCV NS3-4A serine protease (full-length NS3-4A protein, genotype 1a, strain HCV-1) (Hepatitis C virus genotype 1a, UniProt P26664)
T1 construct: using the full-length NS3-4A protein (genotype 1a, strain HCV-1)
Assay: HCV NS3-4A protease assay
Format: biochemical
Details: Protease IC50
Protocol: The inhibitory activity of certain compounds of Table A against HCV NS3-4A serine protease is determined in a homogenous assay using the full-length NS3-4A protein (genotype 1a, strain HCV-1) and a commercially available internally-quenched fluorogenic peptide substrate as described by Taliani, M., et al. 1996 Anal. Biochem. 240:60-67, which is incorporated by reference in its entirety.

T1 sequence (P26664 1658-1711): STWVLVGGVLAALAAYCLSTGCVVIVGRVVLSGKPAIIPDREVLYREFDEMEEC
T1 sequence (P26664 1027-1657): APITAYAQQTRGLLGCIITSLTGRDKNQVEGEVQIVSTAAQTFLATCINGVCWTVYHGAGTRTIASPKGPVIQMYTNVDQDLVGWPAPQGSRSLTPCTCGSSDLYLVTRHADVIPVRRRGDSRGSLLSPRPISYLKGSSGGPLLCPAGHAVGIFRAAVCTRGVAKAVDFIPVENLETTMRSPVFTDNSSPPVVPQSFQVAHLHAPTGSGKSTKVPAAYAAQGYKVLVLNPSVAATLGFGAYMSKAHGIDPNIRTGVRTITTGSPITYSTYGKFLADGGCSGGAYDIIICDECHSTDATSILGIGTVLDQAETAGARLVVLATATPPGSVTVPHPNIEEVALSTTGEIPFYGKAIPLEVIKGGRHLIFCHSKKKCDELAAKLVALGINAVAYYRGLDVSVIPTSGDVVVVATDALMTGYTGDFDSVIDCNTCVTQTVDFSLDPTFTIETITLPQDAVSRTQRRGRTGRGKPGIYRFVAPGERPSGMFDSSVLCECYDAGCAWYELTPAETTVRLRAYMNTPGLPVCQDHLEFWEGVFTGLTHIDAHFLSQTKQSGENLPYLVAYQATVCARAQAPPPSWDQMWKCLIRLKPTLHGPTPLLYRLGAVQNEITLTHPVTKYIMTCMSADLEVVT

| Compound | IC50 [nM] |
| --- | --- |
| C=C[C@H]1C[C@@]1(NC(=O)[C@@H]1C[C@@]2(CN1C(=O)[C@@H](NC(=O)[C@@H](NC(=O)C(C)(C)N1CCOCC1)C1CCCCC1)C(C)(C)C)C(C)(C)C21CCC1)C(=O)NS(=O)(=O)C1CC1 [Compound 101, (5R,8S)-7-[(2S)-2-({cyclohexyl[(2-methyl-2-morpholin-4-ylpropanoyl)amino]acetyl}amino)-3,3-dimethylbutanoyl]-N-{(1R,2S)-1-[(cyclopropylsulfonyl)carba-moyl]-2-vinylcyclopropyl}-10,10-dimethyl-7-azadispiro[3.0.4.1]decane-8-carboxamide] | 1 |
| C=C[C@H]1C[C@@]1(NC(=O)[C@@H]1C[C@@]2(CN1C(=O)[C@@H](NC(=O)[C@@H](NC(=O)C(C)(C)N1CCN(C(C)(C)C)CC1)C1CCCCC1)C(C)(C)C)C(C)(C)C21CCC1)C(=O)NS(=O)(=O)C1CC1 [Compound 102, (5R,8S)-7-[(2S)-2-{[{[2-(4-tert-butylpiperazin-1-yl)-2-methylpropanoyl]amino}(cyclo-hexyl)acetyl]amino}-3,3-dimethylbutanoyl]-N-{(1R,2S)-1-[(cyclopropylsulfonyl)carba-moyl]-2-vinylcyclopropyl}-10,10-dimethyl-7-azadispiro[3.0.4.1]decane-8-carboxamide] | 1 |
| C=C[C@H]1C[C@@]1(NC(=O)[C@@H]1C[C@@]2(CN1C(=O)[C@@H](NC(=O)[C@@H](NC(=O)c1nccn1C)C1CCCCC1)C(C)(C)C)C(C)(C)C21CCC1)C(=O)NS(=O)(=O)C1CC1 [Compound 103, (5R,8S)-7-{(2S)-2-[(cyclohexyl{[(1-methyl-1H-imidazol-2-yl)carbonyl]amino}acetyl)amino]-3,3-dimethylbutanoyl}-N-{(1R,2S)-1-[(cyclopropylsulfonyl)carba-moyl]-2-vinylcyclopropyl}-10,10-dimethyl-7-azadispiro[3.0.4.1]decane-8-carboxamide] | 1.5 |
| C=C[C@H]1C[C@@]1(NC(=O)[C@@H]1C[C@@]2(CN1C(=O)[C@@H](NC(=O)[C@@H](NC(=O)C(C)(C)N1CCCCC1)C1CCCCC1)C(C)(C)C)C(C)(C)C21CCC1)C(=O)NS(=O)(=O)C1CC1 [Compound 104, (5R,8S)-7-[(2S)-2-({cyclohexyl[(2-methyl-2-piperidin-1-ylpropanoyl)amino]acetyl}amino)-3,3-dimethylbutanoyl]-N-{(1R,2S)-1-[(cyclopropylsulfonyl)carba-moyl]-2-vinylcyclopropyl}-10,10-dimethyl-7-azadispiro[3.0.4.1]decane-8-carboxamide] | 0.7 |
| C=C[C@H]1C[C@@]1(NC(=O)[C@@H]1C[C@@]2(CN1C(=O)[C@@H](NC(=O)[C@@H](NC(=O)c1ncc[nH]1)C1CCCCC1)C(C)(C)C)C(C)(C)C21CCC1)C(=O)NS(=O)(=O)C1CC1 [Compound 105, (5R,8S)-7-[(2S)-2-({cyclohexyl[(1H-imidazol-2-ylcarbonyl)amino]acetyl}amino)-3,3-dimethylbutanoyl]-N-{(1R,2S)-1-[(cyclopropylsulfonyl)carba-moyl]-2-vinylcyclopropyl}-10,10-dimethyl-7-azadispiro[3.0.4.1]decane-8-carboxamide] | 0.9 |
| C=C[C@H]1C[C@@]1(NC(=O)[C@@H]1C[C@@]2(CN1C(=O)[C@@H](NC(=O)[C@@H](NC(=O)c1ccno1)C1CCCCC1)C(C)(C)C)C(C)(C)C21CCC1)C(=O)NS(=O)(=O)C1CC1 [Compound 107, (5R,8S)-7-[(2S)-2-({cyclohexyl[(isoxazol-5-ylcarbonyl)amino]acetyl}amino)-3,3-dimethylbutanoyl]-N-{(1R,2S)-1-[(cyclopropylsulfonyl)carba-moyl]-2-vinylcyclopropyl}-10,10-dimethyl-7-azadispiro[3.0.4.1]decane-8-carboxamide] | 0.6 |
| C=C[C@H]1C[C@@]1(NC(=O)[C@@H]1C[C@@]2(CN1C(=O)[C@@H](NC(=O)[C@@H](NC(=O)[C@@H]1CCCO1)C1CCCCC1)C(C)(C)C)C(C)(C)C21CCC1)C(=O)NS(=O)(=O)C1CC1 [Compound 108, (5R,8S)-7-{(2S)-2-[(cyclohexyl{[(2S)-tetrahydrofuran-2-ylcarbonyl]amino}acetyl)amino]-3,3-dimethylbutanoyl}-N-{(1R,2S)-1-[(cyclopropylsulfonyl)carba-moyl]-2-vinylcyclopropyl}-10,10-dimethyl-7-azadispiro[3.0.4.1]decane-8-carboxamide] | 2.5 |
| C=C[C@H]1C[C@@]1(NC(=O)[C@@H]1C[C@@]2(CN1C(=O)[C@@H](NC(=O)[C@@H](NC(=O)C1CNC(=O)C1)C1CCCCC1)C(C)(C)C)C(C)(C)C21CCC1)C(=O)NS(=O)(=O)C1CC1 (stereo partly drawn) [Compound 109, (5R,8S)-7-{(2S)-2-[(cyclohexyl{[(5-oxopyrrolidin-3-yl)carbonyl]amino}acetyl)amino]-3,3-dimethylbutanoyl}-N-{(1R,2S)-1-[(cyclopropylsulfonyl)carba-moyl]-2-vinylcyclopropyl}-10,10-dimethyl-7-azadispiro[3.0.4.1]decane-8-carboxamide] | 0.6 |
| C=C[C@@H]1C[C@]1(NC(=O)[C@@H]1C[C@@]2(CN1C(=O)[C@@H](NC(=O)[C@@H](NC(=O)[C@@H]1CCC(=O)N1)C1CCCCC1)C(C)(C)C)C(C)(C)C21CCC1)C(=O)NS(=O)(=O)C1CC1 [Compound 110, (5R,8S)-7-[(2S)-2-{[(2S)-2-cyclohexyl-2-({[(2S)-5-oxopyrrolidin-2-yl]carbonyl}amino)acetyl]amino}-3,3-dimethylbutanoyl]-N-{(1R,2S)-1-[(cyclopropylsulfonyl)carba-moyl]-2-vinylcyclopropyl}-10,10-dimethyl-7-azadispiro[3.0.4.1]decane-8-carboxamide] | 1.5 |
| C=C[C@@H]1C[C@]1(NC(=O)[C@@H]1C[C@@]2(CN1C(=O)[C@@H](NC(=O)[C@@H](NC(=O)[C@H]1CCC(=O)N1)C1CCCCC1)C(C)(C)C)C(C)(C)C21CCC1)C(=O)NS(=O)(=O)C1CC1 [Compound 111, (5R,8S)-7-[(2S)-2-{[(2S)-2-cyclohexyl-2-({[(2R)-5-oxopyrrolidin-2-yl]carbonyl}amino)acetyl]amino}-3,3-dimethylbutanoyl]-N-{(1R,2S)-1-[(cyclopropylsulfonyl)carba-moyl]-2-vinylcyclopropyl}-10,10-dimethyl-7-azadispiro[3.0.4.1]decane-8-carboxamide] | 2 |
| C=C[C@@H]1C[C@]1(NC(=O)[C@@H]1C[C@@]2(CN1C(=O)[C@@H](NC(=O)[C@@H](NC(=O)c1cocn1)C1CCCCC1)C(C)(C)C)C(C)(C)C21CCC1)C(=O)NS(=O)(=O)C1CC1 [Compound 112, (5R,8S)-7-[(2S)-2-({(2S)-2-cyclohexyl-2-[(1,3-oxazol-4-ylcarbonyl)amino]acetyl}amino)-3,3-dimethylbutanoyl]-N-{(1R,2S)-1-[(cyclopropylsulfonyl)carba-moyl]-2-vinylcyclopropyl}-10,10-dimethyl-7-azadispiro[3.0.4.1]decane-8-carboxamide] | 1.5 |
| C=C[C@@H]1C[C@]1(NC(=O)[C@@H]1C[C@@]2(CN1C(=O)[C@@H](NC(=O)[C@@H](NC(=O)c1cnco1)C1CCCCC1)C(C)(C)C)C(C)(C)C21CCC1)C(=O)NS(=O)(=O)C1CC1 [Compound 113, (5R,8S)-7-[(2S)-2-({(2S)-2-cyclohexyl-2-[(1,3-oxazol-5-ylcarbonyl)amino]acetyl}amino)-3,3-dimethylbutanoyl]-N-{(1R,2S)-1-[(cyclopropylsulfonyl)carba-moyl]-2-vinylcyclopropyl}-10,10-dimethyl-7-azadispiro[3.0.4.1]decane-8-carboxamide] | 2.5 |
| C=C[C@@H]1C[C@]1(NC(=O)[C@@H]1C[C@@]2(CN1C(=O)[C@@H](NC(=O)[C@@H](NC(=O)c1ccc[nH]1)C1CCCCC1)C(C)(C)C)C(C)(C)C21CCC1)C(=O)NS(=O)(=O)C1CC1 [Compound 114, (5R,8S)-7-[(2S)-2-({(2S)-2-cyclohexyl-2-[(1H-pyrrol-2-ylcarbonyl)amino]acetyl}amino)-3,3-dimethylbutanoyl]-N-{(1R,2S)-1-[(cyclopropylsulfonyl)carba-moyl]-2-vinylcyclopropyl}-10,10-dimethyl-7-azadispiro[3.0.4.1]decane-8-carboxamide] | 0.7 |
| C=C[C@@H]1C[C@]1(NC(=O)[C@@H]1C[C@@]2(CN1C(=O)[C@@H](NC(=O)[C@@H](NC(=O)c1ccncn1)C1CCCCC1)C(C)(C)C)C(C)(C)C21CCC1)C(=O)NS(=O)(=O)C1CC1 [Compound 115, (5R,8S)-7-[(2S)-2-({(2S)-2-cyclohexyl-2-[(pyrimidin-4-ylcarbonyl)amino]acetyl}amino)-3,3-dimethylbutanoyl]-N-{(1R,2S)-1-[(cyclopropylsulfonyl)carba-moyl]-2-vinylcyclopropyl}-10,10-dimethyl-7-azadispiro[3.0.4.1]decane-8-carboxamide] | 0.6 |
| C=C[C@@H]1C[C@]1(NC(=O)[C@@H]1C[C@@]2(CN1C(=O)[C@@H](NC(=O)[C@@H](NC(=O)c1cncnc1)C1CCCCC1)C(C)(C)C)C(C)(C)C21CCC1)C(=O)NS(=O)(=O)C1CC1 [Compound 116, (5R,8S)-7-[(2S)-2-({(2S)-2-cyclohexyl-2-[(pyrimidin-5-ylcarbonyl)amino]acetyl}amino)-3,3-dimethylbutanoyl]-N-{(1R,2S)-1-[(cyclopropylsulfonyl)carba-moyl]-2-vinylcyclopropyl}-10,10-dimethyl-7-azadispiro[3.0.4.1]decane-8-carboxamide] | 0.6 |
| C=C[C@@H]1C[C@]1(NC(=O)[C@@H]1C[C@@]2(CN1C(=O)[C@@H](NC(=O)[C@@H](NC(=O)c1ncccn1)C1CCCCC1)C(C)(C)C)C(C)(C)C21CCC1)C(=O)NS(=O)(=O)C1CC1 [Compound 117, (5R,8S)-7-[(2S)-2-({(2S)-2-cyclohexyl-2-[(pyrimidin-2-ylcarbonyl)amino]acetyl}amino)-3,3-dimethylbutanoyl]-N-{(1R,2S)-1-[(cyclopropylsulfonyl)carba-moyl]-2-vinylcyclopropyl}-10,10-dimethyl-7-azadispiro[3.0.4.1]decane-8-carboxamide] | 8 |
